We go through ten molecules from patent US6887896B1, “7-[(7-Alkoxy)-chrom-3-en-6-yl]-heptatrienoic acid and 7-[(3-alkoxy)-5,6-dihydronaphthalen-2-yl]-heptatrienoic acid derivatives having serum glucose reducing activity” (Allergan, Inc., priority 2003, dated 2005).

One assay concerns the target T1, RARβ (Homo sapiens, UniProt P10826).
T1 sequence (P10826 183-417 limits assumed): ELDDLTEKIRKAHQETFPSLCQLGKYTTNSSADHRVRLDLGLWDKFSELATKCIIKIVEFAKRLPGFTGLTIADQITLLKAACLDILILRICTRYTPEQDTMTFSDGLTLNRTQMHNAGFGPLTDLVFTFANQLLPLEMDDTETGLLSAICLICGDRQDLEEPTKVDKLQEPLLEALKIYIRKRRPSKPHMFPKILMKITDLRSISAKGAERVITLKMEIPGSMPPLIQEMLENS
As to the kind of experiment: chimeric receptor transactivation assay, RARβ. It is filed as cell-based. To be noted: for EC50: chimeric receptor transactivation, read-out: RAR Trans. EC50 β; for Emax: percentage compared to the standard compound, read-out: RAR Trans. efficacy (number in parentheses) β. The source says:
Specifically, one such assay is a chimeric receptor transactivation assay which tests for agonist-like activity in the R RAPE and RAR7 receptor subtypes, and which is based on work published by Feigner, P. L. and Holm, M (1989) Focus, 112 is described in detail in U.S. Pat. No. 5,455,265. The specification of U.S. Pat. No. 5,455,265 is hereby expressly incorporated by reference. A holoreceptor transactivation assay and a ligand binding assay which measure the antagonist/agonist like activity of the compounds of the invention, or their ability to bind to the several retinoid receptor subtypes, respectively, are described in published PCT Application No. WO WO93/11755 (particularly on pages 30-33 and 37-41) published on Jun. 24, 1993, the specification of which is also incorporated herein by reference. A detailed experimental procedure for holoreceptor transactivations has been described by Heyman et al. Cell 68, 397-406, (1992); Allegretto et al. J. Biol. Chem. 268, 26625-26633, and Mangelsdorf et al. The Retinoids: Biology, Chemistry and Medicine, pp 319-349, Raven Press Ltd., New York, which are expressly incorporated herein by reference. The results obtained in this assay are expressed in EC50 numbers, as they are also in the chimeric receptor transactivation assay. The results of the ligand binding assay are expressed in Ki numbers. (See Cheng et al. Biochemical Pharmacology Vol. 22 pp 3099-3108, expressly incorporated herein by reference.)
Efficacy in a transactivation assay is expressed as a percentage of the maximum potency attained by the compound compared to a standard which, in this case, is the compound named (2E,4E,1′S,2′S)-3-methyl-5-[2′-methyl-2′-(5,5,8,8-tetramethyl-5,6,7,8-tetrahydro-naphthalen-2-yl)-cyclopropyl]-penta-2,4-dienoic acid. This standard compound is described in U.S. Pat. No. 6,114,533.
The specification of this application for patent is organized in several sections in accordance with structural Formulas A through F each of which discloses a group of preferred compounds within the scope of the invention. Tables that disclose the activity of certain exemplary compounds of the invention in the above-described RXR receptor transactivation and binding assays are found in the corresponding sections. […] The transactivation data pertaining to the activation of RXR receptors were obtained in the holoreceptor assay.
Generally speaking, in the tables disclosing the results of transactivation and binding assays the numbers in parentheses indicate efficacy as a percentage compared to the standard compound, (2E,4E,1′S,2′S)-3-methyl-5-[2′-methyl-2′-(5,5,8,8-tetramethyl-5,6,7,8-tetrahydro-naphthalen-2-yl)cyclopropyl]-penta-2,4-dienoic acid and the other numbers indicate the measured EC50 and K; in nanomolar concentration.

Another assay concerns the target T2, RXRα (Homo sapiens, UniProt P19793).
T2 construct: expressed in transfected cells
T2 sequence (P19793 1-462): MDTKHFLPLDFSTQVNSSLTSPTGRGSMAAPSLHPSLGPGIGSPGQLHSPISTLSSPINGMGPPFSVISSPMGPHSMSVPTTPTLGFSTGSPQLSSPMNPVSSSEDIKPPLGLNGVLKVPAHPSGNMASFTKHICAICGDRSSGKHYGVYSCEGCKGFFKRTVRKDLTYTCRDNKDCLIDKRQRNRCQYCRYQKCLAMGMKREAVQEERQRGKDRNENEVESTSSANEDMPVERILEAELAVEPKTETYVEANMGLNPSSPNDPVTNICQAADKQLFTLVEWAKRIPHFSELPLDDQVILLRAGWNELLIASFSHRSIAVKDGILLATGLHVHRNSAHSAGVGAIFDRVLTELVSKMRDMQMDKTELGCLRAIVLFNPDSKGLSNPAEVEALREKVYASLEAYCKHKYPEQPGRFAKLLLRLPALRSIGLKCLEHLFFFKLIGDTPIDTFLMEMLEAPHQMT
As to the kind of experiment: holoreceptor transactivation assay, RXRα. Format: cell-based. The note with it: for EC50: holoreceptor transactivation, read-out: RXR Trans. EC50 α; for Emax: percentage compared to the standard compound, read-out: RXR Trans. efficacy (number in parentheses) α. The essentials: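 RXR activation measured in holoreceptor transactivation assays; RAR subtypes in chimeric receptor transactivation assays. Values are EC50 in nM, with efficacy as percentage of maximal activity of a reference cyclopropyl-pentadienoic acid RXR agonist.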

A further assay concerns the target T3, RARα (Homo sapiens, UniProt P10276).
T3 sequence (P10276 1-462): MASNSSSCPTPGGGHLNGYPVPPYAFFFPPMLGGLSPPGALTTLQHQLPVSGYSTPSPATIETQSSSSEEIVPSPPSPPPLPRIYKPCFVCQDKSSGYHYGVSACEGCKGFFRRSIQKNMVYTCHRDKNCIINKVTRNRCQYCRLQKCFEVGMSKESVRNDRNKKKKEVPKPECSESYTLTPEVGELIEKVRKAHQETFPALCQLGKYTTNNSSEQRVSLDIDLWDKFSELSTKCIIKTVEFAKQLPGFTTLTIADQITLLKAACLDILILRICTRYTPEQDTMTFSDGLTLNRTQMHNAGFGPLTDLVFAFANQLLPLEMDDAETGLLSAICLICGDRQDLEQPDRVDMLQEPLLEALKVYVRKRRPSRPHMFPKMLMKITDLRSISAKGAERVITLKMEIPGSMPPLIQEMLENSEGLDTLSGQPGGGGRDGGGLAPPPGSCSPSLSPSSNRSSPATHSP
Briefly: ligand binding assay, RARα. To be noted: for Ki: read-out: RAR Bind. Ki α. The essentials:
(§1)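 Binding of compounds to several retinoid receptor subtypes was measured. Results are given as Ki values in nanomolar concentration, derived per Cheng et al.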

For a further assay, the target named is T4, RXRβ (UniProt P28704).
T4 sequence (P28704 1-520): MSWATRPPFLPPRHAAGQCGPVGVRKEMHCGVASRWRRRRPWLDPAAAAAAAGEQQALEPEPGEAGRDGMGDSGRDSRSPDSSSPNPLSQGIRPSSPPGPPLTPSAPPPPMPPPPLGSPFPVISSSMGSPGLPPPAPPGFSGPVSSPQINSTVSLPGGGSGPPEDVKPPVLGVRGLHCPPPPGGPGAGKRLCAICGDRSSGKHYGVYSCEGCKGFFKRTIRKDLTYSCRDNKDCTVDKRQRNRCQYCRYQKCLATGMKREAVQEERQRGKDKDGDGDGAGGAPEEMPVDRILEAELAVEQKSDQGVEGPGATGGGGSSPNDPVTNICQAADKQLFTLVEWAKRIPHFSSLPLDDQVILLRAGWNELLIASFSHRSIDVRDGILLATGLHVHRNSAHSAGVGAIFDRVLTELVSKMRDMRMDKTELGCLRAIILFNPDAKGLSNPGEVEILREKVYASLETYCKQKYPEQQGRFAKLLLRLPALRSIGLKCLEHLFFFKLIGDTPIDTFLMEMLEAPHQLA
Briefly: ligand binding assay, RXRβ. To be noted: for Ki: read-out: RXR Bind Ki β. In short, it runs like this:
as §1

Where only a bound is given, the exact number is not on record here.

Consider `CCOc1cc2c(cc1\C(C)=C(F)/C=C/C(C)=C/C(=O)O)C(C(C)C)=CCC2(C)C` [Compound A-79, (2E,4E,6E)-6-Fluoro-3-(4,4-dimethylethoxy-1-isopropyl-3,4-dihydronaphthalen-7-yl)-3-methyl-2.4,6-octa-trienoic acid], for which the concentration for a half-maximal effect (EC50) at RARβ is 829 nM; on RXRα, 1 nM. In addition, the Emax at RARβ and at RXRα was 62% each time. The Ki worked out at 615 nM at RARα and 13 nM on RXRβ.

Take `CCOc1c(\C(=C(F)/C=C/C(C)=C/C(=O)O)C(C)C)cc2c(c1Br)C(C)(C)CC=C2C(C)C` [Compound A-171, (2E,4E,6E)-7-(4-Bromo-3-ethoxy-8-isopropyl-5,5-dimethyl-5,6-dihydro-naphthalen-2-yl)-6-fluoro-3.8-dimethyl-nona-2.4,6-trienoic acid]: the half-maximal effective concentration (EC50) is 2 nM at RARβ and 0.9 nM at RXRα. The Emax at RARβ amounted to 12%; at RXRα it was 24%. For the same molecule, the Kd worked out at 29 nM at RARα (Table 9 (Formula F), read-out: RAR α Kd) and 15 nM at RXRβ (Table 9 (Formula F), read-out: RXR β Kd).

Consider `COc1c(\C(C)=C/C=C/C(C)=C/C(=O)O)cc2c(c1Cl)OC(C)(C)C=C2C(C)C` [Compound 49, 7-(8-Chloro-4-isopropyl-7-methoxy-2,2-dimethyl-2H-chromen-6-y)-3-methyl-octa-2E,4E,6Z-trienoic acid], for which the figures for the EC50 on RARβ and at RXRα were 132 nM and 0.1 nM, respectively. Further, the Emax at RARβ worked out at 12%; at RXRα it was 93%. In addition, the inhibition constant Ki is 1000 nM at RARα and 20 nM on RXRβ.

For `CCOc1cc2c(cc1\C(C)=C/C=C/C(C)=C/C(=O)O)C(C(C)(C)C)=CCC2(C)C` [Compound A-17, 7-(8-tert-Butyl-3-ethyloxy-5,5-dimethyl-5,6-dihydronaphthalen-2-yl)-3-methyl-octa-2E,4E,6Z-trienoic acid], the EC50 on RARβ came to 50 nM; at RXRα it was 0.6 nM. Moreover, the Emax was determined as 7% on RARβ and 85% on RXRα. For the same molecule, the figures for the Ki at RARα and on RXRβ were 861 nM and 16 nM, respectively.

In the case of `CC/C(=C(F)/C=C/C(C)=C/C(=O)O)c1cc2c(cc1OC)OC(C)(C)C=C2C` [Compound 129, 6-Fluoro-7-(7-methoxy-2,2,4-trimethyl-2H-chromen-6-yl)-3-methyl-nona-2E,4E,6E-trienoic acid], the figures for the EC50 at RARβ and at RXRα were 563 nM and 44 nM, respectively. In addition, the values for the Emax on RARβ and on RXRα were 24% and 99%, respectively. Also, the Ki on RARα turned out to be 177 nM; on RXRβ, 625 nM.

In the case of `CCOc1cc2c(cc1\C(CC)=C(F)/C=C/C(C)=C/C(=O)O)C(CC)=CCC2(C)C` [Compound A-78, (2E,4E,6E)-7-(3-Ethoxy-8-ethyl-5,5-dimethyl-5,6-dihydro-naphthalen-2-yl)-6-fluoro-3-methyl-nona-2,4,6-trienoic acid], the figures for the half-maximal effective concentration (EC50) on RARβ and at RXRα were 43 nM and 3 nM, respectively. Further, the Emax at RARβ amounted to 68%; on RXRα it was 23%. The inhibitory constant (Ki) on RARα was 180 nM; at RXRβ it was 19 nM.

Regarding `COc1cc2c(cc1\C(C)=C/C=C/C(C)=C/C(=O)O)C(C(C)C)=CC(C)(C)O2` [Compound 43, 7-(4-Isopropyl-7-methoxy-2,2-dimethyl-2H-chromen-6-yl)-3-methyl-octa-2E,4E,6Z-trienoic acid], the figures for the EC50 on RARβ and at RXRα were 57 nM and 2 nM, respectively. For the same molecule, the results for the Emax at RARβ and on RXRα were 37% and 89%, respectively. Also, the figures for the Ki at RARα and at RXRβ were 243 nM and 78 nM, respectively.

As for `CCOc1cc2c(cc1\C(=C/C=C/C(C)=C/C(=O)O)CC)C(C)=CCC2(C)C` [Compound A-16, 7-(3-Ethoxy-5,5,8-trimethyl-5,6-dihydronaphthalen-2-yl)-3-methyl-nona-2E,4E,6Z-trienoic acid], the EC50 came out at 242 nM at RARβ and 12 nM at RXRα. The Emax came to 21% on RARβ and 39% at RXRα. Moreover, the Ki at RARα is 578 nM; on RXRβ, 49 nM.

Turning to `CCOc1cc2c(cc1\C(=C/C=C/C(C)=C/C(=O)O)CC)C(C(C)(C)C)=CCC2(C)C` [Compound A-18, 7-(8-tert-butyl-3-ethyoxy-5,5-dimethyl-5,6-dihydronaphthalen-2-yl)-3-methyl-nona-2E,4E,6Z-trienoic acid], the EC50 on RARβ came to 15 nM; on RXRα, 2.6 nM. The Emax amounted to 7% at RARβ and 18% at RXRα. The Ki amounted to 442 nM at RARα and 31 nM at RXRβ.

With `CCOc1cc2c(cc1\C(C)=C/C=C/C(C)=C/C(=O)O)C(CC)=CC(C)(C)O2` [Compound 45, 7-(7-Ethoxy-4-ethyl-2,2-dimethyl-2H-chromen-6-yl)-3-methyl-octa-2E,4E,6Z-trienoic acid], the 50% effective concentration (EC50) on RARβ was over 1000 nM; on RXRα it was 78 nM. The Emax at RXRα was 5%. Also, the inhibition constant Ki on RARα came out at 3 nM; at RXRβ, 343 nM.
